Laboratory results reported in patent US7026315B1, “Fungicide mixtures which are based on derivatives of morpholine or piperidine and derivatives oxime ether” (BASF Aktiengesellschaft, priority 1998, dated 2006).

Tested on: mildew of wheat (Erysiphe graminis forma specialis tritici)
Assay: Activity against mildew of wheat (protective spray on potted wheat seedlings)
Format: in vivo
Settings: wheat seedlings cv. Kanzler, inoculated 24 h after spraying, evaluated after 7 days
Experimental: The active compounds, separately or together, are formulated as a 10% emulsion in a mixture of 63% by weight of cyclohexanone and 27% by weight of emulsifier, and diluted with water to the desired concentration.
Evaluation is carried out by determining the infected leaf areas in percent. These percentages are converted into efficacies. The efficacy (W) is calculated as follows using Abbot's formula: W=(1−α/β)·100 α corresponds to the fungal infection of the treated plants in % and β corresponds to the fungal infection of the untreated (control) plants in %
An efficacy of 0 means that the infection level of the treated plants corresponds to that of the untreated control plants; an efficacy of 100 means that the treated plants were not infected.
The expected efficacies of the mixtures of the active compounds were determined using Colby's formula [F. S. Colby, Weeds 15, 20–22 (1967)] and compared with the observed efficacies. • Colby's formula: E=x+y−x·y/100 E expected efficacy, expressed in % of the untreated control, when using the mixture of the active compounds A and B at the concentrations a and b x efficacy, expressed in % of the untreated control, when using active compound A at a concentration of a y efficacy, expressed in % of the untreated control, when using active compound B at a concentration of b.
Leaves of potted wheat seedlings cv. “Kanzler” were sprayed to runoff point with an aqueous preparation of active compound which was prepared from a stock solution comprising 10% of active compound, 63% of cyclohexanone and 27% of emulsifier and, 24 h after the spray coating had dried on, dusted with spores of mildew of wheat (Erysiphe graminis forma specialis tritici). The test plants were subsequently placed in climatized chambers at 20–24° C. and 60–90% relative atmospheric humidity for 7 days. The extent of the development of the infection on the leaves was then determined visually.
The visually determined values for the percentage of infected leaf areas were converted into efficacies as % of the untreated control. An efficacy of 0 means the same degree of infection as in the untreated control, an efficacy of 100 means 0% infection. The expected efficacies for active compound combinations were determined using Colby's formula (Colby, S. R. “Calculating synergistic and antagonistic responses of herbicide combinations”, Weeds, 15 (1967), 20–22) and compared with the observed efficacies.

Structure (SMILES)	Efficacy in % of the untreated control (0.25 ppm) [%]	Efficacy in % of the untreated control (1 ppm) [%]
CC(Cc1ccc(C(C)(C)C)cc1)CN1CCCCC1 (stereo not shown) [Compound I.b, Fenpropidin]	55	–
CC(Cc1ccc(C(C)(C)C)cc1)CN1C[C@@H](C)O[C@@H](C)C1 (stereo partly shown) [Compound I.a, Fenpropimorph]	55	–
CCCCCCCCCCCCCN1CC(C)OC(C)C1 (stereo not shown) [Compound I.c, Tridemorph]	0	0
